ChEMBL document CHEMBL3826976, “New Insights into Human 17β-Hydroxysteroid Dehydrogenase Type 14: First Crystal Structures in Complex with a Steroidal Ligand and with a Potent Nonsteroidal Inhibitor” (J Med Chem, 2016)

Target: T1, 17-beta-hydroxysteroid dehydrogenase 14 (Homo sapiens) (UniProt Q9BPX1)
T1 sequence (whole entry): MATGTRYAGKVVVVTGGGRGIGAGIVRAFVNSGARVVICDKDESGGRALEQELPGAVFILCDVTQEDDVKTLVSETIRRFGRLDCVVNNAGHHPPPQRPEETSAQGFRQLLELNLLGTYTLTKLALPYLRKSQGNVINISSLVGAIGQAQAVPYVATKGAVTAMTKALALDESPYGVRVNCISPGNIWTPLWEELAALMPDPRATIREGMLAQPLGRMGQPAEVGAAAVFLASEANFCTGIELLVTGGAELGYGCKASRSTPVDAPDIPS
Description: Binding affinity to human 17-beta-HSD14 assessed as change in melting temperature at 0.25 mM by thermal shift assay

| ΔTm | Structure (SMILES) |
| --- | --- |
| 1.5 °C | C[C@]12CC[C@@H]3c4ccc(O)cc4CC[C@H]3[C@@H]1CCC2=O |
| 1.5 °C | C[C@]12CC[C@@H]3c4ccc(O)cc4CC[C@H]3[C@@H]1CC[C@@H]2O |
